Data: patent US10131652B2, “Pyrimidinyloxy benzene derivatives as herbicides” (E. I. DU PONT DE NEMOURS AND COMPANY, priority 2014, dated 2018)

Legend:
Type in all cases: in vivo
[1] = system: johnsongrass (Sorghum halepense); assay: Test D pre-/postemergence plant response
Text: (§1) Seeds of plant species selected from blackgrass (Alopecurus myosuroides), Italian ryegrass (Lolium multiflorum), winter wheat (Triticum aestivum), galium (catchweed bedstraw, Galium aparine), corn (Zea mays), large (Lg) crabgrass (Digitaria sanguinalis), giant foxtail (Setaria faberii), johnsongrass (Sorghum halepense), lambsquarters (Chenopodium album), morningglory (Ipomoea coccinea), yellow nutsedge (Cyperus esculentus), pigweed (Amaranthus retroflexus), ragweed (common ragweed, Ambrosia elatior), soybean (Glycine max), bamyardgrass (Echinochloa crus-galli), oilseed rape (Brassica napus), waterhemp (common waterhemp, Amaranthus rudis), and velvetleaf (Abutilon theophrasti) were planted into a blend of loam soil and sand and treated preemergence with test chemicals formulated in a non-phytotoxic solvent mixture which included a surfactant. At the same time, plants selected from these crop and weed species and also kochia (Kochia scoparia), wild oat (Avena fatua), and chickweed (common chickweed, Stellaria media) were planted in pots containing Redi-Earth® planting medium (Scotts Company, 14111 Scottslawn Road, Marysville, Ohio 43041) comprising spaghnum peat moss, vermiculite, wetting agent and starter nutrients and treated with postemergence applications of test chemicals formulated in the same manner. Plants ranged in height from 2 to 18 cm (1- to 4-leaf stage) for postemergence treatments. Treated plants and controls were maintained in a greenhouse for 13 to 15 days, after which time all species were compared to controls and visually evaluated. Plant response ratings, summarized in Table D, are based on a scale of 0 to 100 where 0 is no effect and 100 is complete control. A dash (-) response means no test result.

[2] = system: yellow nutsedge (Cyperus esculentus); assay: Test D pre-/postemergence plant response
Text: as §1

[3] = system: blackgrass (Alopecurus myosuroides); assay: Test D pre-/postemergence plant response
Text: as §1

[4] = system: waterhemp (common waterhemp, Amaranthus rudis); assay: Test D pre-/postemergence plant response
Text: as §1

soybean (Glycine max) = assay: Test D pre-/postemergence plant response
Text: as §1

[5] = system: pigweed (Amaranthus retroflexus); assay: Test D pre-/postemergence plant response
Text: as §1

[6] = system: large (Lg) crabgrass (Digitaria sanguinalis); assay: Test D pre-/postemergence plant response
Text: as §1

[7] = system: morningglory (Ipomoea coccinea); assay: Test D pre-/postemergence plant response
Text: as §1

[8] = system: ragweed (common ragweed, Ambrosia elatior); assay: Test D pre-/postemergence plant response
Text: as §1

[9] = system: barnyardgrass (Echinochloa crus-galli); assay: Test D pre-/postemergence plant response
Text: as §1

[10] = system: giant foxtail (Setaria faberii); assay: Test D pre-/postemergence plant response
Text: as §1

[11] = system: pigweed (Amaranthus retroflexus); assay: Test B pre-/postemergence plant response; conditions: 1000 g ai/ha, 0 to 100 scale (0 no effect, 100 complete control)
Outline: (§2)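 Visual injury scores on a 0–100 scale (100 = complete control) relative to untreated plants, taken about 10 days post-treatment in greenhouse. Treatments were a directed preemergence soil spray and a postemergence spray at one- to two-leaf stage, using surfactant-containing solvent formulation.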

corn (Zea mays) = assay: Test B pre-/postemergence plant response; conditions: Postemergence, 1000 g ai/ha; 0 to 100 scale (0 no effect, 100 complete control)
Outline: as §2

[12] = system: barnyardgrass (Echinochloa crus-galli); assay: Test B pre-/postemergence plant response; conditions: 1000 g ai/ha, 0 to 100 scale (0 no effect, 100 complete control)
Outline: as §2

[13] = system: wheat (Triticum aestivum); assay: Test B pre-/postemergence plant response; conditions: Postemergence, 1000 g ai/ha; 0 to 100 scale (0 no effect, 100 complete control)
Outline: as §2

[14] = system: giant foxtail (Setaria faberii); assay: Test B pre-/postemergence plant response; conditions: 1000 g ai/ha, 0 to 100 scale (0 no effect, 100 complete control)
Outline: as §2

[15] = Postemergence, 16 g ai/ha, scale 0 to 100 (0 no effect, 100 complete control)
[16] = Postemergence, 31 g ai/ha, scale 0 to 100 (0 no effect, 100 complete control)
[17] = Postemergence, 62 g ai/ha, scale 0 to 100, 0 no effect, 100 complete control
[18] = Postemergence, 125 g ai/ha, scale 0 to 100, 0 no effect, 100 complete control
[19] = Preemergence, 16 g ai/ha, scale 0 to 100 (0 no effect, 100 complete control)
[20] = Preemergence, 31 g ai/ha, scale 0 to 100 (0 no effect, 100 complete control)
[21] = Preemergence, 62 g ai/ha, scale 0 to 100 (0 no effect, 100 complete control)

FCc1cc(-c2c(F)cccc2Oc2ncc(Cl)cn2)no1 [Compound 57]
25: Plant response rating, Ragweed [8, 19]
65: Plant response rating, Soybean (soybean (Glycine max); [20]) | Plant response rating, Morningglory [7, 18]
95: Plant response rating (scale 0 to 100), Soybean (soybean (Glycine max); Preemergence, 125 g ai/ha) | Plant response rating, Soybean (soybean (Glycine max); [21])
80: Plant response rating (scale 0 to 100), Johnsongrass ([1]; Preemergence, 125 g ai/ha)
70: Soybean plant response rating (soybean (Glycine max); [16])
75: Plant response rating, Waterhemp [4, 17] | Plant response rating, Pigweed [5, 18] | Plant response rating, Pigweed [5, 19] | Plant response rating, Crabgrass, Large [6, 19] | Plant response rating (scale 0 to 100), Barnyardgrass ([9]; Preemergence, 62 g ai/ha)
5: Plant response rating, Johnsongrass [1, 17] | Plant response rating, Johnsongrass [1, 18] | Nutsedge, Yellow plant response rating [2, 16] | Plant response rating, Nutsedge, Yellow [2, 17] | Plant response rating, Nutsedge, Yellow [2, 18] | Plant response rating, Blackgrass [3, 19] | Plant response rating, Blackgrass [3, 20] | Crabgrass, Large plant response rating [6, 15] | Crabgrass, Large plant response rating [6, 16] | Morningglory plant response rating [7, 15] | Barnyardgrass plant response rating [9, 16] | Plant response rating, Barnyardgrass [9, 17] | Plant response rating, Barnyardgrass [9, 19]
100: Plant response rating (scale 0 to 100), Waterhemp ([4]; Preemergence, 125 g ai/ha) | Plant response rating, Waterhemp [4, 19] | Plant response rating, Waterhemp [4, 21] | Plant response rating (scale 0 to 100), Pigweed ([5]; Preemergence, 125 g ai/ha) | Plant response rating, Pigweed [5, 21] | Plant response rating (scale 0 to 100), Crabgrass, Large ([6]; Preemergence, 125 g ai/ha) | Plant response rating, Crabgrass, Large [6, 21] | Plant response rating (scale 0 to 100), Ragweed ([8]; Preemergence, 125 g ai/ha) | Plant response rating, Ragweed [8, 21] | Plant response rating (scale 0 to 100), Foxtail, Giant ([10]; Preemergence, 125 g ai/ha) | Plant response rating, Foxtail, Giant [10, 21] | Plant response rating, Pigweed ([11]; Postemergence) | Plant response rating, Barnyardgrass ([12]; Postemergence) | Plant response rating, Barnyardgrass ([12]; Preemergence) | Plant response rating, Foxtail, Giant ([14]; Postemergence) | Plant response rating, Foxtail, Giant ([14]; Preemergence)
98: Plant response rating, Waterhemp [4, 18] | Plant response rating, Ragweed [8, 18]
0: Johnsongrass plant response rating [1, 15] | Johnsongrass plant response rating [1, 16] | Plant response rating, Johnsongrass [1, 19] | Nutsedge, Yellow plant response rating [2, 15] | Plant response rating, Nutsedge, Yellow [2, 19] | Blackgrass plant response rating [3, 15] | Blackgrass plant response rating [3, 16] | Plant response rating, Blackgrass [3, 17] | Barnyardgrass plant response rating [9, 15] | Foxtail, Giant plant response rating [10, 15]
85: Plant response rating, Soybean (soybean (Glycine max); [17]) | Plant response rating, Pigweed [5, 20] | Plant response rating, Crabgrass, Large [6, 20] | Plant response rating (scale 0 to 100), Barnyardgrass ([9]; Preemergence, 125 g ai/ha)
30: Pigweed plant response rating [5, 15]
35: Plant response rating, Morningglory [7, 21] | Plant response rating, Ragweed [8, 20]
45: Morningglory plant response rating [7, 16] | Plant response rating, Morningglory [7, 17] | Plant response rating (scale 0 to 100), Morningglory ([7]; Preemergence, 125 g ai/ha)
10: Plant response rating, Johnsongrass [1, 20] | Plant response rating, Nutsedge, Yellow [2, 20] | Plant response rating, Crabgrass, Large [6, 17] | Plant response rating, Crabgrass, Large [6, 18] | Plant response rating, Morningglory [7, 19] | Plant response rating, Barnyardgrass [9, 18] | Foxtail, Giant plant response rating [10, 16]
55: Waterhemp plant response rating [4, 16] | Pigweed plant response rating [5, 16] | Plant response rating, Pigweed [5, 17]
60: Plant response rating (scale 0 to 100), Blackgrass ([3]; Preemergence, 125 g ai/ha) | Waterhemp plant response rating [4, 15] | Plant response rating, Ragweed [8, 17]
15: Plant response rating, Blackgrass [3, 18]
40: Plant response rating, Johnsongrass [1, 21] | Soybean plant response rating (soybean (Glycine max); [15])
50: Plant response rating, Blackgrass [3, 21] | Ragweed plant response rating [8, 16] | Plant response rating, Foxtail, Giant [10, 19]
20: Plant response rating (scale 0 to 100), Nutsedge, Yellow ([2]; Preemergence, 125 g ai/ha) | Plant response rating, Nutsedge, Yellow [2, 21] | Plant response rating, Morningglory [7, 20] | Ragweed plant response rating [8, 15] | Plant response rating, Barnyardgrass [9, 20] | Plant response rating, Foxtail, Giant [10, 17] | Plant response rating, Foxtail, Giant [10, 18]
90: Plant response rating, Waterhemp [4, 20] | Plant response rating, Soybean (soybean (Glycine max); [18]) | Plant response rating, Foxtail, Giant [10, 20] | Plant response rating, Pigweed ([11]; Preemergence) | Plant response rating, Corn (corn (Zea mays)) | Plant response rating, Wheat [13]
